{"source": "patent US20260215419A1", "about": "“PLANT EXTRACTS WITH HERBICIDAL ACTIVITY” (Agrematch Ltd., priority 2023, published 2026)", "format_in_all_cases": "in vivo", "key": {"Amaranthus palmeri": {"system": "Amaranthus palmeri", "assay": "Post-emergence herbicidal activity, visual damage score 0-100", "details": "Table 4; 7-day old plants; 0.8 ml per 80 cm^2 pot; scored 13 days after application; average of five pots; synthetic Rhein 1 gram/liter (1000 g/ha) in 2% MIPA, 2% DASH, 0.25% Genapol", "description": "(§1) Damage assessment: Herbicidal activity was assessed and scored by visual inspection of the plants in comparison to plants treated with the formulation alone (with no plant extract) as control. Activity score is in the range of 0 to 100, where 0 represents no herbicidal activity like control plants and 100 represents the maximal herbicidal activity (i.e., total death of the plant).\n(§2) The herbicidal activity of Rhein-containing extracts was determined by post-emergence application on 8-day old plants (weeds) of the Amaranthus palmeri and Setaria viridis species that were grown at 16 hours/8 hours day/night cycles at 30° C./25° C., respectively. Leaf stage was typically 4-6 for A. palmeri and 3-4 for S. viridis. […]\n(§3) Herbicidal activity was assessed and scored 4 days after application by visual inspection of the plants in comparison to plants treated with the control solution alone (with no active ingredient). […]\n(§4) Herbicidal activity of extract sample A-1b was determined by post-emergence application on 8-day old plants (weeds) of the A. palmeri and S. viridis species and 11-day old plants (weeds) of Abutilon theophrasti, Solanum nigrum, Echinochloa colonum, Phalaris canarinesis and Lolium multiflorum that were grown at 16 hours/8 hours day/night cycles at 30° C./25° C., respectively. […]\n(§5) Herbicidal activity was assessed and scored 13 days after application, as described hereinabove. […]"}, "Setaria viridis": {"system": "Setaria viridis", "assay": "Post-emergence herbicidal activity, visual damage score 0-100", "details": "Table 4; 7-day old plants; 0.8 ml per 80 cm^2 pot; scored 13 days after application; average of five pots; synthetic Rhein 1 gram/liter (1000 g/ha)", "description": "as §1, §2, §3, §4, §5"}, "Solanum nigrum": {"system": "Solanum nigrum", "assay": "Post-emergence weed panel, visual damage score 0-100", "details": "Table 4; 8-day old plants; 0.8 ml per 80 cm^2 pot; scored 13 days after application; average of five pots; synthetic Rhein 1 gram/liter (1000 g/ha)", "description": "Damage assessment: Herbicidal activity was assessed and scored by visual inspection of the plants in comparison to plants treated with the formulation alone (with no plant extract) as control. Activity score is in the range of 0 to 100, where 0 represents no herbicidal activity like control plants and 100 represents the maximal herbicidal activity (i.e., total death of the plant). Herbicidal activity of extract sample A-1b was determined by post-emergence application on 8-day old plants (weeds) of the A. palmeri and S. viridis species and 11-day old plants (weeds) of Abutilon theophrasti, Solanum nigrum, Echinochloa colonum, Phalaris canarinesis and Lolium multiflorum that were grown at 16 hours/8 hours day/night cycles at 30° C./25° C., respectively. Leaf stage was typically 4-6 for A. palmeri, 3-4 for S. viridis, 3 for A. theophrasti and S. nigrum, 4 for E. colonum, and 2 for P. canarinesis and L. multiflorum. […] Herbicidal activity was assessed and scored 3 days after application, as described hereinabove. Herbicidal activity was determined by post-emergence application on 7-day old plants (weeds) of the A. palmeri and S. viridis species and 8-day old plants (weeds) of S. nigrum, and C. quinoa that were grown at 16 hours/8 hours day/night cycles at 30° C./25° C., respectively. […] Herbicidal activity was assessed and scored 13 days after application, as described hereinabove."}, "Chenopodium quinoa": {"system": "Chenopodium quinoa", "assay": "Post-emergence weed panel, visual damage score 0-100", "details": "Table 4; 8-day old plants; 0.8 ml per 80 cm^2 pot; scored 13 days after application; average of five pots; synthetic Rhein 1 gram/liter (1000 g/ha)", "description": "Damage assessment: Herbicidal activity was assessed and scored by visual inspection of the plants in comparison to plants treated with the formulation alone (with no plant extract) as control. Activity score is in the range of 0 to 100, where 0 represents no herbicidal activity like control plants and 100 represents the maximal herbicidal activity (i.e., total death of the plant). Herbicidal activity was determined by post-emergence application on 7-day old plants (weeds) of the A. palmeri and S. viridis species and 8-day old plants (weeds) of S. nigrum, and C. quinoa that were grown at 16 hours/8 hours day/night cycles at 30° C./25° C., respectively. Leaf stage was typically 4-6 for A. palmeri, 3-4 for S. viridis, and 4 for S. nigrum and C. quinoa. Each treatment contained five 80 cm^2 pots, each containing about 4 plants of one of the tested weed species. Each pot was sprayed with 0.8 ml of either: • 1. the exemplary extract sample A-1b, in which plant source A powder was mixed with solution 1b for 1.5 hours before filtration, or • 2. 1 gram/liter synthetic Rhein molecule dissolved in 2% MIPA, 2% DASH and 0.25% Genapol solution, which is equivalent to 1000 g/ha. Herbicidal activity was assessed and scored 13 days after application, as described hereinabove."}}, "data": [{"smiles": "O=C(O)c1cc(O)c2c(c1)C(=O)c1cccc(O)c1C2=O", "note": "[Synthetic Rhein, Rhein]", "values": [{"measurement": "Score (Amaranthus palmeri)", "setting": "Amaranthus palmeri", "value": 100}, {"measurement": "Score (Setaria viridis)", "setting": "Setaria viridis", "value": 97}, {"measurement": "Score (Solanum nigrum)", "setting": "Solanum nigrum", "value": 100}, {"measurement": "Score (Chenopodium quinoa)", "setting": "Chenopodium quinoa", "value": 100}]}]}
